Here are results for three compounds from patent US6380179B1, “Method for treatment of alopecia” (Sankyo Company, Limited, priority 1997, dated 2002).

The subject of test [1] is monkey model animal of male pattern baldness. As to conditions: cited from earlier work.
Test [2] concerns the target T1, recombinant type I human 5α-reductase (Homo sapiens, UniProt P18405).
T1 construct: In order to clone the entirely translated regions of type I and type II human 5α-reductases by a polymerase chain reaction (PCR) method; made in house; host or cells: COS-1 cells transiently transfected with pME18sH5R1; resuspended 10000×g pellet of the homogenate used as the enzyme
T1 sequence (P18405 1-259): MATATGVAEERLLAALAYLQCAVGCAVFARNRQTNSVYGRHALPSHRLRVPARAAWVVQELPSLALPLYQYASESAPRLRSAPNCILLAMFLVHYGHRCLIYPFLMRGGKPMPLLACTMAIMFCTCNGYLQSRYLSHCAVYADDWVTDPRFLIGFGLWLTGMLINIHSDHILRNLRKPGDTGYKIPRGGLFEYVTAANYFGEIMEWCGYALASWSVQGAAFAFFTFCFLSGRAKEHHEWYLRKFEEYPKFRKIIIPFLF
Kind of test: Inhibitory activity against recombinant type I human 5α-reductase (conversion of 14C testosterone to 14C 5α-dihydrotestosterone). The format is biochemical. The settings on record: recombinant human type I 5α-reductase, pH 7.5, 1 μM 14C testosterone, 37° C. 15 minutes; Table 1. As for the experimental part: Method for Determination of the Inhibitory Activity Against Each of Type I and Type II Human 5α-reductases
(1) Preparation of recombinant human type I and type II 5α-reductases
In order to clone the entirely translated regions of type I and type II human 5α-reductases by a polymerase chain reaction (PCR) method, primers of Sequence ID. Nos. 1,2,3 and 4 were prepared using an Oligo 1000 DNA synthesizer (product of BECKMAN Co., Ltd.) on the basis of the base sequences of type I and type II human 5α-reductases described in published reports (Stefan. A, et al., Proc. Natl. Acad. Sci. USA, 87, 3640-3644(1990). Stefan. A, et al. Nature, 354. 159-161(1991)).
PCR was carried out using 1 μl of cDNA. 5 μl of a PCR buffer attached. 1 μl of a 10 mM dNTP mixed solution. 1 μl each of the above-described sense and antisense-primers at a concentration of 20 μl M. 1 μl of […] of TaKaRa Taq polymerase and 40 μl of distilled water to give a reaction volume of 50 μl. For PCR, a cycle of the reactions at 94° C. for 20 seconds, at 55° C. for 1 minute and at 72° C. for 1 minute was repeated 25 times, followed by storing at 4° C. […]
The protein content was measured by the Bradford method (Bio-Rad Protein Assay of Biorad) by using bovine gamma-globulin (bovine cohn fraction II, product of Sigma) as a standard product. […]

The test system of test [3] is dihydrotestosterone (DHT) and testosterone (T) levels in blood. Briefly: Effects for lowering the dihydrotestosterone level in human blood after oral administration. The format is in vivo. As to conditions: n=4 to 6. As for the experimental part:
Effects for Lowering the Dihydrosterone Level in Human Blood
To a human body, 1 to 10 mg/body of Compound I or 5 mg/body of Finasteride was orally administered and the dihydrotestosterone (DHT) and testosterone (T) levels in blood were measured. Their ratios (DHT/T) before administration (pre) and after passage of time (10 and 18 hours) were calculated, from which (DHT/T)/(DHT/T)pre was calculated.

A further test has as its system human baldness. The settings on record: clinical test; cited from earlier work.

The structures appear in SMILES notation. pIC50: −log10 of the molar value.

Regarding `CC(C)CCCC(C)C1CCC2C3C(C)CC4N(C)C(=O)CCC4(C)C3CCC12C` (stereo not shown) [MK386], in test [1], the effectiveness on baldness entry is on record as “not recognized”.
As to `COc1ccc(C(C)(C)NC(=O)[C@H]2CC[C@H]3[C@@H]4CC[C@H]5NC(=O)C=C[C@]5(C)[C@H]4CC[C@]23C)cc1` [Compound of Reference Example 1, N-[1-Methyl1-(4-methoxyphenyl)ethyl]-3-oxo4-aza-5α-androsto-1-ene-17β-carboxamide], in test [2], the pIC50 was 7.31. Besides, the “(DHT/T)/(DHT/T)pre” value in test [3] (1 mg/body, after 10 hours) was found to be 0.518; in test [3] (1 mg/body, after 18 hours), 0.525; in test [3] (5 mg/body, after 10 hours), 0.411; in test [3] (5 mg/body, after 18 hours), 0.376; in test [3] (10 mg/body, after 10 hours), 0.279; in test [3] (10 mg/body, after 18 hours), 0.284.
Turning to `CC(C)(C)NC(=O)[C@H]1CC[C@H]2[C@@H]3CC[C@H]4NC(=O)C=C[C@]4(C)[C@H]3CC[C@]12C` [Finasteride, reference compound], the effectiveness on baldness result in test [1] is “effective in the treatment of baldness”. Further, the “effects on human baldness” value with human baldness was “have been recognized”. Besides, in test [2], the pIC50 is 6.15. The “(DHT/T)/(DHT/T)pre” value amounted to 0.553 in test [3] (5 mg/body, after 10 hours) and 0.461 in test [3] (5 mg/body, after 18 hours).
